Tested on: SW 1271 complex tumor spheroid viability
Assay: Anticancer human tumor SW 1271 cell line growth inhibition;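 note: spheroids exposed to agents for seven days before readout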;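 for viability, T/C: percent of DMSO vehicle control luminescence so 100% = vehicle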
Settings: for IC50: curve of first compound; for viability, T/C: stronger effect = lower value
Summary of the method: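 Single agents and combinations were tested on spheroids built from tumor cells plus HUVEC and hMSC, at half-log dilutions starting at or near clinical Cmax, else 10 microM; final DMSO 0.25% (v/v).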

[1] = second compound 30 pM, first compound 0.0316 µM
[2] = second compound 30 pM, first compound 0.1 µM
[3] = second compound 30 pM, first compound 0.316 µM
[4] = second compound 30 pM, first compound 1 µM
[5] = second compound 30 pM, first compound 3.16 µM
[6] = second compound 30 pM, first compound 10 µM
[7] = second compound 94.9 pM, first compound 0.0316 µM
[8] = second compound 94.9 pM, first compound 0.1 µM
[9] = second compound 94.9 pM, first compound 0.316 µM
[10] = second compound 94.9 pM, first compound 1 µM
[11] = second compound 94.9 pM, first compound 3.16 µM
[12] = second compound 94.9 pM, first compound 10 µM
[13] = second compound 0.0003 µM, first compound 0.0316 µM
[14] = second compound 0.0003 µM, first compound 0.1 µM
[15] = second compound 0.0003 µM, first compound 0.316 µM
[16] = second compound 0.0003 µM, first compound 1 µM
[17] = second compound 0.0003 µM, first compound 3.16 µM
[18] = second compound 0.0003 µM, first compound 10 µM
[19] = second compound 0.000949 µM, first compound 0.0316 µM
[20] = second compound 0.000949 µM, first compound 0.1 µM
[21] = second compound 0.000949 µM, first compound 0.316 µM
[22] = second compound 0.000949 µM, first compound 1 µM
[23] = second compound 0.000949 µM, first compound 3.16 µM
[24] = second compound 0.000949 µM, first compound 10 µM
[25] = second compound 0.003 µM, first compound 0.0316 µM
[26] = second compound 0.003 µM, first compound 0.1 µM
[27] = second compound 0.003 µM, first compound 0.316 µM
[28] = second compound 0.003 µM, first compound 1 µM
[29] = second compound 0.003 µM, first compound 3.16 µM
[30] = second compound 0.003 µM, first compound 10 µM

Row | SMILES | IC50 (second compound 30 pM) [nM] | IC50 (second compound 94.9 pM) [nM] | IC50 (second compound 0.0003 µM) [nM] | IC50 (second compound 0.000949 µM) [nM] | IC50 (second compound 0.003 µM) [nM] | viability, T/C [1] [%] | viability, T/C [2] [%] | viability, T/C [3] [%] | viability, T/C [4] [%] | viability, T/C [5] [%] | viability, T/C [6] [%] | viability, T/C [7] [%] | viability, T/C [8] [%] | viability, T/C [9] [%] | viability, T/C [10] [%] | viability, T/C [11] [%] | viability, T/C [12] [%] | viability, T/C [13] [%] | viability, T/C [14] [%] | viability, T/C [15] [%] | other results
1 | CC1COCCN1c1cc(-c2ccnn2C)c2ccnc(-c3ccn[nH]3)c2n1 (stereo not given) + COc1cc2c(cc1O)CCNC21CSC2c3c(OC(C)=O)c(C)c4c(c3C(COC1=O)N1C(O)C3Cc5cc(C)c(OC)c(O)c5C(C21)N3C)OCO4 | < 31.6 | < 31.6 | < 31.6 | < 31.6 | < 31.6 | 42.9 | 12.5 | 7.53 | 3.2 | 2.78 | 2.04 | 10.9 | 6.89 | 5.14 | 3.73 | 1.95 | 2.12 | 10.8 | 6.88 | 5.11 | viability, T/C [16]: 2.88%; viability, T/C [17]: 1.51%; viability, T/C [18]: 1.29%; viability, T/C [19]: 3%; viability, T/C [20]: 1.96%; viability, T/C [21]: 1.34%; viability, T/C [22]: 1.09%; viability, T/C [23]: 0.1%; viability, T/C [24]: 0.3%; viability, T/C [25]: 0.1%; viability, T/C [26]: 0.09%; viability, T/C [27]: 0.1%; viability, T/C [28]: 0.08%; viability, T/C [29]: 0.09%; viability, T/C [30]: 0.15%
2 | COc1cc(C)[nH]c(=O)c1CN1CCc2c(Cl)cc(C(OC)C3COC3)c(Cl)c2C1=O (stereo not given) + COc1cc2c(cc1O)CCNC21CSC2c3c(OC(C)=O)c(C)c4c(c3C(COC1=O)N1C(O)C3Cc5cc(C)c(OC)c(O)c5C(C21)N3C)OCO4 | > 10000 | 5220 | < 31.6 | < 31.6 | < 31.6 | 101 | 96 | 96.4 | 89.6 | 86.8 | 77.1 | 65.9 | 75.3 | 67.4 | 64.4 | 57 | 40.9 | 33.3 | 37 | 34.2 | viability, T/C [16]: 38.3%; viability, T/C [17]: 36.6%; viability, T/C [18]: 37.1%; viability, T/C [19]: 5.93%; viability, T/C [20]: 5.35%; viability, T/C [21]: 4.91%; viability, T/C [22]: 3.61%; viability, T/C [23]: 7.88%; viability, T/C [24]: 2.67%; viability, T/C [25]: 0.11%; viability, T/C [26]: 0.12%; viability, T/C [27]: 0.11%; viability, T/C [28]: 0.11%; viability, T/C [29]: 0.11%; viability, T/C [30]: 0.16%
3 | COc1ccc([C@@H](O)c2cc(-c3ncnc4cc(N5CCOCC5)ccc34)c(F)cc2Cl)nn1 + COc1cc2c(cc1O)CCNC21CSC2c3c(OC(C)=O)c(C)c4c(c3C(COC1=O)N1C(O)C3Cc5cc(C)c(OC)c(O)c5C(C21)N3C)OCO4 | 1080 | 168 | < 31.6 | < 31.6 | < 31.6 | 84.9 | 86.9 | 77.4 | 51.1 | 21.7 | 6.57 | 71.1 | 51.8 | 39.6 | 33.5 | 25.9 | 4.84 | 35.7 | 33.3 | 31.1 | viability, T/C [16]: 17.6%; viability, T/C [17]: 1.97%; viability, T/C [18]: 0.12%; viability, T/C [19]: 2.95%; viability, T/C [20]: 2.6%; viability, T/C [21]: 1.24%; viability, T/C [22]: 0.04%; viability, T/C [23]: 0.02%; viability, T/C [24]: 0.1%; viability, T/C [25]: 0.1%; viability, T/C [26]: 0.08%; viability, T/C [27]: 0.08%; viability, T/C [28]: 0.08%; viability, T/C [29]: 0.09%; viability, T/C [30]: 0.15%
4 | Cc1cc(C)c(CNC(=O)c2cc(-c3ccc(CN4CCOCC4)cc3)cc3c2cnn3C2CCCC2)c(=O)[nH]1 + COc1cc2c(cc1O)CCNC21CSC2c3c(OC(C)=O)c(C)c4c(c3C(COC1=O)N1C(O)C3Cc5cc(C)c(OC)c(O)c5C(C21)N3C)OCO4 | > 10000 | 987 | < 31.6 | < 31.6 | < 31.6 | 86.2 | 92.9 | 90.4 | 87.4 | 84.5 | 66.2 | 59.6 | 63.3 | 66.6 | 49.8 | 40.7 | 34.4 | 32.9 | 35.7 | 34.1 | viability, T/C [16]: 30.3%; viability, T/C [17]: 29.3%; viability, T/C [18]: 24%; viability, T/C [19]: 2.96%; viability, T/C [20]: 14.8%; viability, T/C [21]: 2.88%; viability, T/C [22]: 3.26%; viability, T/C [23]: 1.94%; viability, T/C [24]: 1.96%; viability, T/C [25]: 0.23%; viability, T/C [26]: 0.24%; viability, T/C [27]: 0.28%; viability, T/C [28]: 0.25%; viability, T/C [29]: 0.21%; viability, T/C [30]: 0.29%
5 | [2H]c1nc(C)nc([2H])c1-c1cc(NC[C@@H](C)c2cccc3c(C(=O)NC)ccnc23)ncn1 + COc1cc2c(cc1O)CCNC21CSC2c3c(OC(C)=O)c(C)c4c(c3C(COC1=O)N1C(O)C3Cc5cc(C)c(OC)c(O)c5C(C21)N3C)OCO4 | > 10000 | > 10000 | < 31.6 | < 31.6 | < 31.6 | 104 | 93.9 | 98.7 | 96.4 | 93.4 | 90.1 | 60.4 | 68.6 | 75.6 | 69.9 | 63.4 | 51.7 | 33.1 | 35.1 | 33.4 | viability, T/C [16]: 30.1%; viability, T/C [17]: 34.2%; viability, T/C [18]: 31.6%; viability, T/C [19]: 10.5%; viability, T/C [20]: 4.86%; viability, T/C [21]: 4.58%; viability, T/C [22]: 3.72%; viability, T/C [23]: 2.73%; viability, T/C [24]: 1.89%; viability, T/C [25]: 0.1%; viability, T/C [26]: 0.09%; viability, T/C [27]: 0.1%; viability, T/C [28]: 0.09%; viability, T/C [29]: 0.09%; viability, T/C [30]: 0.17%

Reference: PubChem BioAssay AID1845215 (Molecular Pharmacology Branch, DTP, NCI, 2023)
